Source: patent publication US20240124417A1, “COMPOUNDS USEFUL AS IMMUNOMODULATORS” (Bristol-Myers Squibb Company, priority 2019, published 2024)

target: T1, PD-1/PD-L1 (Homo sapiens, UniProt Q9NZQ7); test: PD-1/PD-L1 Homogenous Time-Resolved Fluorescence (HTRF) binding assay; conditions: PD-L1-His 10 nM, PD-1-Ig 20 nM
T1 construct: TVMV protease site linker (C); made in house; host or cells: HEK293T cells
Text: The ability of the compounds of the invention to bind to PD-L1 was investigated using a PD-1/PD-L1 Homogenous Time-Resolved Fluorescence (HTRF) binding assay.
Homogenous Time-Resolved Fluorescence (HTRF) binding assay.
The interaction of PD-1 and PD-L1 can be assessed using soluble, purified preparations of the extracellular domains of the two proteins. The PD-1 and PD-L1 protein extracellular domains were expressed as fusion proteins with detection tags, for PD-1, the tag was the Fc portion of Immunoglobulin (PD-1-Ig) and for PD-L1 it was the 6 histidine motif (PD-L1-His). All binding studies were performed in an HTRF assay buffer consisting of dPBS supplemented with 0.1% […] bovine serum albumin and 0.05% (v/v) Tween-20. For the h/PD-L1-His binding assay, inhibitors were pre-incubated with PD-L1-His (10 nM final) for 15 m in 4 μl of assay buffer, followed by addition of PD-1-Ig (20 nM final) in 1 μl of assay buffer and further incubation for 15 m. HTRF detection was achieved using europium crypate-labeled anti-Ig (1 nM final) and allophycocyanin (APC) labeled anti-His (20 nM final). Antibodies were diluted in HTRF detection buffer and 5 μl was dispensed on top of the binding reaction. […] Additional binding assays were established between the human proteins PD-1-Ig/PD-L2-His (20 & 5 nM, respectively) and CD80-His/PD-L1-Ig (100 & 10 nM, respectively). […]

T1 sequence (Q9NZQ7 18-239): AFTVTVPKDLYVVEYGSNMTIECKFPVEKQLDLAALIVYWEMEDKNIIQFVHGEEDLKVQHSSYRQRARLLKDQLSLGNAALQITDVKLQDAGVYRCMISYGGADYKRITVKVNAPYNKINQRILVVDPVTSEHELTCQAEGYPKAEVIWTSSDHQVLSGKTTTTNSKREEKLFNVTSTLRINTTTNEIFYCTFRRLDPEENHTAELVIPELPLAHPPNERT

Row | Structure (SMILES) | IC50 [nM]
1 | Cc1c(COc2cc(OCc3cncc(C#N)c3)c(CNCc3nccs3)cc2Cl)cccc1-c1cccc(OCCCN2CC[C@@H](O)C2)c1C [Example 2530, (R)-5-((4-chloro-5-((3′-(3-(3-hydroxypyrrolidin-1-yl)propoxy)-2,2′-dimethyl-[1,1′-biphenyl]-3-yl)methoxy)-2-(((thiazol-2-ylmethyl)amino)methyl)phenoxy)methyl)nicotinonitrile] | 6.2
2 | Cc1c(COc2cc(OCc3cncc(C#N)c3)c(CNCc3cccnc3Cl)cc2Cl)cccc1-c1cccc(OCC2CCCN(C)C2)c1Cl (stereo not shown) [Example 2621, 5-((4-chloro-5-((2′-chloro-2-methyl-3′-((1-methylpiperidin-3-yl)methoxy)-[1,1′-biphenyl]-3-yl)methoxy)-2-((((2-chloropyridin-3-yl)methyl)amino)methyl)phenoxy)methyl)nicotinonitrile] | 8.9
3 | Cc1c(COc2cc(OCc3cncc(C#N)c3)c(CNCc3nc4ccccc4n3Cc3ccccc3)cc2Cl)cccc1-c1cccc(OCCCN2CC[C@@H](O)C2)c1C [Example 2557, (R)-5-((2-((((1-benzyl-1H-benzo[d]imidazol-2-yl)methyl)amino)methyl)-4-chloro-5-((3′-(3-(3-hydroxypyrrolidin-1-yl)propoxy)-2,2′-dimethyl-[1,1′-biphenyl]-3-yl)methoxy)phenoxy)methyl)nicotinonitrile] | 73.3
4 | Cc1c(COc2cc(OCc3cncc(C#N)c3)c(CNCc3cn[nH]c3)cc2Cl)cccc1-c1cccc(OCCCN2CC[C@@H](O)C2)c1C [Example 2524, (R)-5-((2-((((1H-pyrazol-4-yl)methyl)amino)methyl)-4-chloro-5-((3′-(3-(3-hydroxypyrrolidin-1-yl)propoxy)-2,2′-dimethyl-[1,1′-biphenyl]-3-yl)methoxy)phenoxy)methyl)nicotinonitrile] | 5.5
5 | COCc1noc(CNCc2cc(Cl)c(OCc3cccc(-c4cccc(OCCCN5CC[C@@H](O)C5)c4C)c3C)cc2OCc2cncc(C#N)c2)n1 [Example 2558, (R)-5-((4-chloro-5-((3′-(3-(3-hydroxypyrrolidin-1-yl)propoxy)-2,2′-dimethyl-[1,1′-biphenyl]-3-yl)methoxy)-2-((((3-(methoxymethyl)-1,2,4-oxadiazol-5-yl)methyl)amino)methyl)phenoxy)methyl)nicotinonitrile] | 6.4
6 | Cc1c(COc2cc(OCc3cncc(C#N)c3)c(CNCc3cc(C)n(C)n3)cc2Cl)cccc1-c1cccc(OCCCN2CC[C@@H](O)C2)c1C [Example 2536, (R)-5-((4-chloro-2-((((1,5-dimethyl-1H-pyrazol-3-yl)methyl)amino)methyl)-5-((3′-(3-(3-hydroxypyrrolidin-1-yl)propoxy)-2,2′-dimethyl-[1,1′-biphenyl]-3-yl)methoxy)phenoxy)methyl)nicotinonitrile] | 7.4
7 | Cc1c(COc2cc(OCc3cncc(C#N)c3)c(CNCc3cccnn3)cc2Cl)cccc1-c1cccc(OCCCN2CC[C@@H](O)C2)c1C [Example 2021, (R)-5-((4-chloro-5-((3′-(3-(3-hydroxypyrrolidin-1-yl)propoxy)-2,2′-dimethyl-[1,1′-biphenyl]-3-yl)methoxy)-2-(((pyridazin-3-ylmethyl)amino)methyl)phenoxy)methyl)nicotinonitrile] | 6

Second part, the compound after the results:

Row | IC50 [nM] | Structure (SMILES)
8 | 2.3 | Cc1c(COc2cc(OCc3cncc(C#N)c3)c(CN3CCC(c4cc[nH]n4)C3)cc2Cl)cccc1-c1cccc(OCC2CCCN(C)C2)c1Cl (stereo not shown) [Example 2608, 5-((2-((3-(1H-pyrazol-3-yl)pyrrolidin-1-yl)methyl)-4-chloro-5-((2′-chloro-2-methyl-3′-((1-methylpiperidin-3-yl)methoxy)-[1,1′-biphenyl]-3-yl)methoxy)phenoxy)methyl)nicotinonitrile]
9 | 1.7 | Cc1n[nH]c(C)c1CNCc1cc(Cl)c(OCc2cccc(-c3cccc(OCC4CCCN(C)C4)c3Cl)c2C)cc1OCc1cncc(C#N)c1 (stereo not shown) [Example 2599, 5-((4-chloro-5-((2′-chloro-2-methyl-3′-((1-methylpiperidin-3-yl)methoxy)-[1,1′-biphenyl]-3-yl)methoxy)-2-((((3,5-dimethyl-1H-pyrazol-4-yl)methyl)amino)methyl)phenoxy)methyl)nicotinonitrile]
10 | 3.9 | Cc1c(COc2cc(OCc3cncc(C#N)c3)c(CN(C)Cc3cc(C)n(C)n3)cc2Cl)cccc1-c1cccc(OCCCN2CC[C@@H](O)C2)c1C [Example 2541, (R)-5-((4-chloro-2-((((1,5-dimethyl-1H-pyrazol-3-yl)methyl)(methyl)amino)methyl)-5-((3′-(3-(3-hydroxypyrrolidin-1-yl)propoxy)-2,2′-dimethyl-[1,1′-biphenyl]-3-yl)methoxy)phenoxy)methyl)nicotinonitrile]
11 | 1 | Cc1c(COc2cc(OCc3cncc(C#N)c3)c(CNCCc3cscn3)cc2Cl)cccc1-c1cccc(OCC2CCCN(C)C2)c1Cl (stereo not shown) [Example 2598, 5-((4-chloro-5-((2′-chloro-2-methyl-3′-((1-methylpiperidin-3-yl)methoxy)-[1,1′-biphenyl]-3-yl)methoxy)-2-(((2-(thiazol-4-yl)ethyl)amino)methyl)phenoxy)methyl)nicotinonitrile]
12 | 2.8 | CC(=O)NC1CCN(CCCOc2cccc(-c3cccc(COc4cc(OCc5cncc(C#N)c5)c(CN(C)CCc5nn[nH]n5)cc4Cl)c3C)c2C)CC1 [Example 1037, N-(1-(3-((3′-((4-(((2-(2H-Tetrazol-5-yl)ethyl)(methyl)amino)methyl)-2-chloro-5-((5-cyanopyridin-3-yl)methoxy)phenoxy)methyl)-2,2′-dimethyl-[1,1′-biphenyl]-3-yl)oxy)-propyl)piperidin-4-yl)acetamide]
13 | 0.6 | Cc1c(COc2cc(OCc3cncc(C#N)c3)c(CNC3CCc4[nH]ncc4C3)cc2Cl)cccc1-c1cccc(OCC2CCCN(C)C2)c1Cl (stereo not shown) [Example 2601, 5-((4-chloro-5-((2′-chloro-2-methyl-3′-((1-methylpiperidin-3-yl)methoxy)-[1,1′-biphenyl]-3-yl)methoxy)-2-(((4,5,6,7-tetrahydro-1H-indazol-5-yl)amino)methyl)phenoxy)methyl)nicotinonitrile]
14 | 5.4 | Cc1noc(C)c1CN(C)Cc1cc(Cl)c(OCc2cccc(-c3cccc(OCCCN4CC[C@@H](O)C4)c3C)c2C)cc1OCc1cncc(C#N)c1 [Example 2527, (R)-5-((4-chloro-2-((((3,5-dimethylisoxazol-4-yl)methyl)(methyl)amino)methyl)-5-((3′-(3-(3-hydroxypyrrolidin-1-yl)propoxy)-2,2′-dimethyl-[1,1′-biphenyl]-3-yl)methoxy)phenoxy)methyl)nicotinonitrile]
15 | 0.2 | Cc1c(COc2cc(OCc3cncc(C#N)c3)c(CNCc3cc[nH]n3)cc2Cl)cccc1-c1cccc(OCCCN2CC[C@@H](O)C2)c1C [Example 2001, (R)-5-((2-((((1H-pyrazol-3-yl)methyl)amino)methyl)-4-chloro-5-((3′-(3-(3-hydroxypyrrolidin-1-yl)propoxy)-2,2′-dimethyl-[1,1′-biphenyl]-3-yl)methoxy)phenoxy)methyl)nicotinonitrile]
16 | 0.4 | Cc1c(COc2cc(OCc3cncc(C#N)c3)c(CNCCc3cscn3)cc2Cl)cccc1-c1cccc(OCCCN2CC[C@@H](O)C2)c1C [Example 2506, (R)-5-((4-chloro-5-((3′-(3-(3-hydroxypyrrolidin-1-yl)propoxy)-2,2′-dimethyl-[1,1′-biphenyl]-3-yl)methoxy)-2-(((2-(thiazol-4-yl)ethyl)amino)methyl)phenoxy)methyl)nicotinonitrile]
